Results on 3 molecules are retold here after PMC9180407, “Unraveling the Binding Mechanism of Alzheimer’s Drugs with Irisin: Spectroscopic, Calorimetric, and Computational Approaches” (International Journal of Molecular Sciences, 2022).

Like-named read-outs stand apart in the source and are kept apart here.

In this assay the target is T1, irisin (Homo sapiens, UniProt Q8NAU1).
T1 construct: gene FNDC5; irisin (secreted ectodomain cleaved from FNDC5), His tag with 3C site (pET15b-His-3C-irisin), tag cleavage not mentioned, E. coli C41-DE3, Ni-NTA purified
T1 sequence (Q8NAU1 80-191 limits assumed): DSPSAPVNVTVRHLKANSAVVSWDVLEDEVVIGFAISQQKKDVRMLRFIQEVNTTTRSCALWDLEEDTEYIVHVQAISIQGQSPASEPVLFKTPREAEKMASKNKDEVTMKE
Nature of the assay: isothermal titration calorimetry. In kind it is binding. The text has this: isothermal titration calorimetry on irisin

Regarding `CNCCC(Oc1ccc(C(F)(F)F)cc1)c1ccccc1` (stereo not drawn) [fluoxetine], the Kd (read-out: Ka1 (converted)) was 0.156 µM.

For the molecule `COc1ccc2c3c1O[C@H]1C[C@@H](O)C=C[C@@]31CCN(C)C2` [galantamine], the Kd (read-out: Ka2 (converted)) is 8.06 µM.

For `CC12CC3CC(C)(C1)CC(N)(C3)C2` [memantine], under “read-out: Ka2 (converted)”, the Kd was 9.35 µM.
